Data as given in paper PMC9315041, “Conformationally Constrained Sialyl Analogues as New Potential Binders of h‐CD22” (Chembiochem, 2022).

Columns and labels:
h-CD22 (Siglec-2) [1] = target: T1, h-CD22 (Siglec-2) (Homo sapiens, UniProt P20273); test: intrinsic tryptophan fluorescence titration; STD NMR and tr-NOESY; format: binding
T1 sequence (P20273 20-687 limits assumed): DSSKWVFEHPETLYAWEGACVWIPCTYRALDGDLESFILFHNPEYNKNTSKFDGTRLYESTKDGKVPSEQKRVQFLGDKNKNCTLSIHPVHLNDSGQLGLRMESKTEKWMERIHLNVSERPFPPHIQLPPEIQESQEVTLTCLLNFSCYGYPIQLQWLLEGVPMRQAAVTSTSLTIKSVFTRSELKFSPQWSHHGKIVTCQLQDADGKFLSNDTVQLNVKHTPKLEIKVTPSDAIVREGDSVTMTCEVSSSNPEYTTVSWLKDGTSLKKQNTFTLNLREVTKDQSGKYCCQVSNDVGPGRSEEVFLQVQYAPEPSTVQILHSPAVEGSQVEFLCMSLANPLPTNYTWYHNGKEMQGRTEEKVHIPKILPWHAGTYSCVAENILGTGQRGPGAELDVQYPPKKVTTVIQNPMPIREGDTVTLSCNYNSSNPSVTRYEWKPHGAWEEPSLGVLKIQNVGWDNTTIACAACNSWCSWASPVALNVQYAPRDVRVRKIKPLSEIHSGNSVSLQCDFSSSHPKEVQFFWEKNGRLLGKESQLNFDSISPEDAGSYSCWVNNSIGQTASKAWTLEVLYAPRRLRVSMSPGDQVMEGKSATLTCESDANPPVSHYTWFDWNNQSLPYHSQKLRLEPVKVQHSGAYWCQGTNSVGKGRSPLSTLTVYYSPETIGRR
Description: intrinsic tryptophan fluorescence titration; STD NMR and tr-NOESY on h-CD22 (Siglec-2) | thus proving the complex formation.

h-CD22 (Siglec-2) [2] = target: T1, h-CD22 (Siglec-2); test: SPR (CD22 immobilized on protein A chip); STD NMR; format: binding

Kd (h-CD22 (Siglec-2) [2])	Structure (SMILES)	Kd (h-CD22 (Siglec-2) [1])
	CC(=O)N[C@H]1[C@H]([C@H](O)[C@H](O)CO)OC(OC[C@H]2O[C@@H]3OC4=C(S[C@@H]3[C@@H](O)[C@H]2O)C(=O)N[C@H](C(=O)O)C4)(C(=O)O)C[C@@H]1O (some centres unmarked) [compound 1, Sialyl-TnThr analogue]	2 ± 0.1 µM
13.5 ± 2.6 µM	CC(=O)N[C@H]1[C@H]([C@H](O)[C@H](O)CNC(=O)c2ccc(-c3ccccc3)cc2)OC(OC[C@H]2O[C@@H]3OC4=C(S[C@@H]3[C@@H](O)[C@H]2O)C(=O)N[C@H](C(=O)O)C4)(C(=O)O)C[C@@H]1O (some centres unmarked) [compound 2, sialo-derivative 2]	
